From patent publication US20060079453A1, “Hla binding peptides and their uses” (priority 2002, published 2006)
Like-named read-outs stand apart in the source and are kept apart here. No end group written: not given here.

How the values were obtained:
Assay in all cases: biochemical
Format in all cases: binding
[1] = molecular target: HLA-DR DRB4*0101 (DR53) (Homo sapiens, UniProt P01903+P13762, G164S)
[2] = molecular target: HLA-DR DRB1*1501 (DR15) (Homo sapiens, UniProt P01903+P01911)
[3] = molecular target: HLA-DR DRB1*0401 (DR4) (Homo sapiens, UniProt P01903+P01911, A100K/A169T/F76Y/I96L/K127E/L162R/M171V/N62H/P40V/Q125Y/R42H/S133A/S149N/S66Y/V115G/V209L/W38E)
[4] = molecular target: HLA-DR DRB1*0701 (DR7) (Homo sapiens, UniProt P01903+P01911, A100R/A102G/A103Q/D57E/D86V/E43K/F76Y/K127E/L162R/M171V/P40G/Q125H/Q99D/R33Q/R42Y/R54Q/S133A/S66F/T210M/V115G/Y107V/Y59L/Y89S)
[5] = molecular target: HLA-DR DRB1*0101 (DR1) (Homo sapiens, UniProt P01903+P01911, A100R/D57E/F55L/F60I/F76Y/I96L/L162R/M171V/P40L/Q125E/R42F/V115G/Y59C)
[6] = molecular target: HLA-DR DRB1*1302 (DR13) (Homo sapiens, UniProt P01903+P01911, A100E/A169T/K41T/L162R/M171V/P40S/Q125H/Q178H/Q39Y/Q99D/R42S/S66N/T262R/V115G/W38E/Y61H)
Sequence of HLA-DR DRB1*1302 (DR13) (P01903 26-254 limits assumed, other chains not shown): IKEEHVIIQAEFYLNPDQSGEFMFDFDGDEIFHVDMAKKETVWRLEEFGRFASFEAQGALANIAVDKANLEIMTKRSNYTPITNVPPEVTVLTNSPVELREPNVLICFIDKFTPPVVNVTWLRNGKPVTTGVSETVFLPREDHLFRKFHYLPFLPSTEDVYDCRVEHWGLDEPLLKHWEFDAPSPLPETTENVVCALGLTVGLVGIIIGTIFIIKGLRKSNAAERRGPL

[7] = molecular target: HLA-DR DRB5*0101 (DR51) (Homo sapiens, UniProt P01903+Q30154)

IRNLALQTLPAM
IC50 ([1]; DRB4 *0101): 0.002 µM

IRNLALQTLPAMCNVY
IC50 ([1]; DRB4 *0101): 0.0019 µM

KKNIIALLIIPPKIH
IC50 ([2]; read-out: DRBI *1501): 0.032 µM | IC50 ([1]; read-out: DRB4 *0101): 0.0082 µM

KQPFRPQQPYPQ
IC50 ([1]; DRB4 *0101): 0.056 µM

KSLLSTNLPYGRTNL
IC50 ([3]; DRB1 *0401): 0.69 µM | IC50 ([4]; DRB1 *0701): 50 µM

KYVKQNTLKLAT
IC50 [5]: 0.0099 µM | IC50 [3]: 0.0062 µM

LEDLLMGTLGIVCPI
IC50 ([6]; read-out: DRBI *1302): 1.69 µM | IC50 ([1]; read-out: DRB4 *0101): 1.8 µM | IC50 ([7]; read-out: DRB5 *0101): 9.48 µM

LGQQQPFPPQ
IC50 ([1]; DRB4 *0101): 0.151 µM

MIMIKFMGVIYIMII [MJMIKFMGVIYIMII]
IC50 ([6]; DRBI *1302): 0.102 µM | IC50 ([2]; DRBI *1501): 23.6 µM

NLALQTLPAMCNVY
IC50 ([1]; DRB4 *0101): 0.027 µM

NPVVHFFKNIVT
IC50 ([2]; DRBI *1501): 0.023 µM | IC50 ([7]; DRB5 *0101): 10 µM

NPVVHFFKNIVTPR
IC50 ([2]; DRBI *1501): 0.0037 µM | IC50 ([7]; DRB5 *0101): 1.89 µM

NYELSKKAVIFTPIY [NYELSKXAVIFTPIY]
IC50 ([6]; DRBI *1302): 0.41 µM | IC50 ([2]; DRBI *1501): 0.537 µM | IC50 ([7]; DRB5 *0101): 10.6 µM

P(X)KQNTLKLAT
IC50 ([5]; read-out: DRB1 *0101): 0.0017 µM

PATYGIIVPVLTSLF
IC50 ([5]; DRB1 *0101): 0.00103 µM | IC50 ([3]; DRB1 *0401): 0.015 µM | IC50 ([2]; DRBI *1501): 2.56 µM | IC50 ([7]; DRB5 *0101): 0.052 µM

PAYEKLSAEQSPPPY
IC50 ([3]; DRB1 *0401): 0.479 µM

PEFLEQRRAAVDTYC
IC50 ([5]; DRB1 *0101): 5 µM | IC50 ([3]; DRB1 *0401): 80 µM

PFRPQQPYPQ
IC50 ([1]; DRB4 *0101): 0.042 µM

PKPFRPQQPYPQ
IC50 ([1]; DRB4 *0101): 0.0034 µM

PKYFKQGFLKGAT
IC50 [5]: ≥ 50 µM | IC50 [3]: 0.8 µM

PKYFKQRLLKFAT
IC50 ([3]; read-out: DRB1 *0401): 0.4 µM

PKYGKQIDLKGAT
IC50 ([5]; DRB1 *0101): ≥ 50 µM

PQPFKPQQPYPQ
IC50 ([1]; DRB4 *0101): 0.019 µM

PQPFRKQQPYPQ
IC50 ([1]; DRB4 *0101): 0.022 µM

PQPFRPQKPYPQ
IC50 ([1]; DRB4 *0101): 0.022 µM

PQPFRPQQP
IC50 ([1]; DRB4 *0101): 0.019 µM

PQPFRPQQPYKQ
IC50 ([1]; DRB4 *0101): 0.035 µM

PQPFRPQQPYP
IC50 ([1]; DRB4 *0101): 0.014 µM

PQPFRPQQPYPK
IC50 ([1]; DRB4 *0101): 0.022 µM

PQPFRPQQPYPQ
IC50 ([1]; DRB4 *0101): 0.015 µM

QFLGQQQPF
IC50 ([1]; DRB4 *0101): 0.0053 µM

QFLGQQQPFPP
IC50 ([1]; DRB4 *0101): 0.0023 µM

QFLGQQQPFPPQ
IC50 ([1]; DRB4 *0101): 0.0028 µM

QKQLLTNHLINTPKI
IC50 ([1]; read-out: DRB4 *0101): 0.904 µM

QKQVQMMIMIKFMGV
IC50 ([2]; read-out: DRBI *1501): 0.363 µM | IC50 ([1]; read-out: DRB4 *0101): 0.0053 µM | IC50 ([7]; read-out: DRB5 *0101): 0.915 µM

QKQVQMMIMTKFMGV
IC50 ([5]; read-out: DRB1 *0101): 0.121 µM | IC50 ([4]; read-out: DRB1 *0701): 3.62 µM

QKWAAVVVPS
IC50 ([5]; DRB1 *0101): ≥ 50 µM | IC50 ([3]; DRB1 *0401): 1 µM

QNILFSNAPLGPQFP
IC50 ([3]; DRB1 *0401): 0.195 µM

RIVYRDNNPYGVCIM
IC50 ([2]; read-out: DRBI *1501): 0.821 µM | IC50 ([1]; read-out: DRB4 *0101): 1.4 µM | IC50 ([7]; read-out: DRB5 *0101): 20.5 µM

RNGYRALMDKSLHVGTQCALTRR
IC50 ([3]; DRB1 *0401): 0.512 µM

SAFLESQSMNKIGDD
IC50 ([5]; DRB1 *0101): 0.549 µM | IC50 ([4]; DRB1 *0701): 0.523 µM | IC50 ([2]; DRBI *1501): 18.7 µM | IC50 ([1]; DRB4 *0101): 0.302 µM | IC50 ([7]; DRB5 *0101): 0.243 µM

SAVPVYIYFNTWTTCQSIAF
IC50 ([2]; read-out: DRBI *1501): 0.092 µM | IC50 ([7]; read-out: DRB5 *0101): 20 µM

SMEYKKDFLITARKY
IC50 ([6]; read-out: DRBI *1302): 3.82 µM | IC50 ([2]; read-out: DRBI *1501): 4.61 µM

TWQLNGEELIQDM
IC50 ([5]; read-out: DRB1 *0101): ≥ 50 µM

VGIRTPVLTSLFNKV
IC50 ([1]; read-out: DRB4 *0101): 0.097 µM | IC50 ([7]; read-out: DRB5 *0101): 0.08 µM

VRTLQQLLMGTCTIV
IC50 ([6]; read-out: DRBI *1302): 0.037 µM | IC50 ([2]; read-out: DRBI *1501): 1.83 µM | IC50 ([7]; read-out: DRB5 *0101): > 15.3 µM

YAR(15A)RQTTLKA
IC50 ([5]; read-out: DRB1 *0101): 0.0016 µM | IC50 ([3]; read-out: DRB1 *0401): 0.00035 µM | IC50 ([4]; read-out: DRB1 *0701): 8.33 µM

YARFLALTTLRARA
IC50 ([5]; read-out: DRB1 *0101): 0.00098 µM | IC50 ([3]; read-out: DRB1 *0401): 0.00028 µM

YFNNFTVSFWLRVPK
IC50 [5]: ≥ 50 µM

YSFFPSI [YSFFPSI]
IC50 ([5]; DRB1 *0101): ≥ 50 µM
